The values that follow come from patent US9115101B2 (Genentech, Inc., priority 2012, dated 2015).

One assay has as its target T1, RORc ligand binding domain (Homo sapiens, UniProt P51449).
T1 construct: host or cells: E. coli
T1 sequence (P51449 269-508 limits assumed): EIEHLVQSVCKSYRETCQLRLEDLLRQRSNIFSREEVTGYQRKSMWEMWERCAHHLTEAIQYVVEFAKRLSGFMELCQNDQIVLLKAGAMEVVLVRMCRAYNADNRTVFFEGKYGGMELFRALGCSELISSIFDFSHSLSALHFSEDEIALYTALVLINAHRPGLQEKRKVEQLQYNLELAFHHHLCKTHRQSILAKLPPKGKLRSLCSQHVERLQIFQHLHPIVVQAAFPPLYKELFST
Description: In Vitro RORc Ligand Binding Assay (25-[3H]hydroxycholesterol radioligand filtration). To be noted: In Vitro RORc Ligand Binding Assay; Table 4; read-out: RORc IC50.
Consider `C[C@H]1CCC(c2ccccc2)S(=O)(=O)N1Cc1ccc(C(=O)N2CCCC(O)CC2)cc1` (stereo partly drawn) [Example 284, (4-Hydroxy-azepan-1-yl)-[4-((3S)-methyl-1,1-dioxo-6-phenyl-[1,2]thiazinan-2-ylmethyl)-phenyl]-methanone], for which the half-inhibitory concentration (IC50) came to 1430 nM.

As for `C[C@H](O)C(=O)N1CCN(c2ccc(CN3[C@@H](C)CCC(c4ccccc4)S3(=O)=O)c(F)c2)CC1` (single isomer, unassigned) [Example 78], the half-inhibitory concentration (IC50) worked out at 29 nM.

Take `C[C@H]1CCC(c2ccccc2)S(=O)(=O)N1Cc1ccc(NC2CCC(C#N)CC2)cc1F` (stereo partly drawn) [Example 101, 4-[3-Fluoro-4-((3S)-3-methyl-1,1-dioxo-6-phenyl-[1,2]thiazinan-2-ylmethyl)-phenylamino]-cyclohexanecarbo-nitrile]: the 50% inhibitory concentration (IC50) is 18 nM.

With `CC(=O)N1CCN(c2ccc(CN3[C@@H](C)CCC(c4cccc(C#N)c4)S3(=O)=O)c(F)c2)CC1` (single isomer, unassigned) [Example 203], the IC50 was 206 nM.

As for `COc1cc(N2CCN(C(C)=O)CC2)ccc1CN1[C@@H](C)CCC(c2ccccc2)S1(=O)=O` (single isomer, unassigned) [Example 159], the IC50 turned out to be 1610 nM.

On to `C[C@H]1CCC(c2ccccc2)S(=O)(=O)N1Cc1ccc(N2CCNCC2)cc1F` (single isomer, unassigned) [Example 96], for which the IC50 was found to be 4480 nM.

As to `CC(=O)N1CCN(c2ccc(CN3[C@@H](C)CCC(c4ccccc4)S3(=O)=O)c(F)c2)C[C@@H]1C(=O)N(C)C` (stereo partly drawn) [Example 384, (R)-1-Acetyl-4-[3-fluoro-4-((3S)-methyl-1,1-dioxo-6-phenyl-[1,2]thiazinan-2-ylmethyl)-phenyl]-piperazine-2-carboxylic acid dimethylamide], the IC50 was found to be 1720 nM.

Regarding `CC(=O)N1CCN(c2ccc(CN3CC(C)CC(c4ccccc4)S3(=O)=O)c(F)c2)CC1` (single isomer, unassigned) [Example 119, 1-{4-[3-Fluoro-4-(4-methyl-1,1-dioxo-6-phenyl-[1,2]thiazinan-2-ylmethyl)-phenyl]-piperazin-1-yl}-ethanone], the IC50 is 2 nM.

Regarding `C[C@@H](O)C(=O)N1CCN(c2ccc(CN3CCCCC(c4ccccc4)S3(=O)=O)cc2)CC1` (single isomer, unassigned) [Example 317, 1-{4-[4-(1,1-Dioxo-7-phenyl-[1,2]thiazepan-2-ylmethyl)-phenyl]-piperazin-1-yl}-2-hydroxy-propan-1-one], the 50% inhibitory concentration (IC50) is 3400 nM.

In the case of `CC(=O)N1CCN(c2ccc(CN3[C@@H](C)CCC(c4ccccc4)S3(=O)=O)c(F)c2)C[C@@H]1CO` (stereo partly drawn) [Example 262, 1-{4-[3-Fluoro-4-((3S)-methyl-1,1-dioxo-6-phenyl-[1,2]thiazinan-2-ylmethyl)-phenyl]-2-hydroxymethyl-piperazin-1-yl}-ethanone], the half-maximal inhibitory concentration (IC50) turned out to be 82 nM.

With `C[C@H]1CCC(c2ccccc2)S(=O)(=O)N1Cc1ccc(NC2CCN(S(C)(=O)=O)CC2)cc1F` (single isomer, unassigned) [Example 166], the IC50 is 25 nM.

As for `C[C@H]1CCC(c2ccccc2)S(=O)(=O)N1Cc1ccc(C(=O)N2CCN(C(=O)C3CC3)CC2)cc1` (stereo partly drawn) [Example 288, (4-Cyclopropane carbonyl-piperazin-1-yl)-[4-((3S)-methyl-1,1-dioxo-6-phenyl-[1,2]thiazinan-2-ylmethyl)-phenyl]-methanone], the IC50 came to 2670 nM.

On to `CC(=O)N1CCN(c2ccc(CN3[C@H](C)COCC(c4ccccc4)S3(=O)=O)c(F)c2)CC1` (single isomer, unassigned) [Example 27], for which the IC50 was determined as 188 nM.

As for `CC1CN(C(=O)c2ccc(CN3[C@@H](C)CCC(c4ccccc4)S3(=O)=O)cc2)CC(=O)N1` (stereo partly drawn) [Example 368, 6-Methyl-4-[4-((3S)-methyl-1,1-dioxo-6-phenyl-[1,2]thiazinan-2-ylmethyl)-benzoyl]-piperazin-2-one], the IC50 is 2360 nM.

In the case of `C[C@H]1CCC(c2ccccc2)S(=O)(=O)N1Cc1ccc(N2CCc3[nH]ncc3C2)cc1F` (single isomer, unassigned) [Example 156], the concentration for half-maximal inhibition (IC50) came out at 272 nM.

On to `C[C@H]1CCC(c2ccccc2)S(=O)(=O)N1Cc1ccc(C(=O)N2CCn3nccc3C2)cc1` (stereo partly drawn) [Example 373, (6,7-Dihydro-4H-pyrazolo[1,5-a]pyrazin-5-yl)-[4-((3S)-methyl-1,1-dioxo-6-phenyl-[1,2]thiazinan-2-ylmethyl)-phenyl]-methanone], for which the IC50 was 4360 nM.

Consider `CS(=O)(=O)N1CCC(Nc2ccc(CN3CC4(CC4)CC(c4ccccc4)S3(=O)=O)c(F)c2)CC1` (single isomer, unassigned) [Example 253, 5-(2-fluoro-4-((1-(methylsulfonyl)piperidin-4-yl)amino)benzyl)-7-phenyl-6-thia-5-azaspiro[2.5]octane 6,6-dioxide], for which the IC50 was 7 nM.

On to `C[C@H]1CCC(c2ccccc2)S(=O)(=O)N1Cc1ccc(C(=O)N2CC3(CCOCC3)C2)cc1` (stereo partly drawn) [Example 370, [4-((3S)-Methyl-1,1-dioxo-6-phenyl-[1,2]thiazinan-2-ylmethyl)-phenyl]-(7-oxa-2-aza-spiro[3.5]non-2-yl)-methanone], for which the IC50 was determined as 1060 nM.

On to `C[C@H](O)C(=O)N1C[C@H]2C[C@@H]1CN2c1ccc(CN2[C@@H](C)CCC(c3ccccc3)S2(=O)=O)c(F)c1` (single isomer, unassigned) [Example 182], for which the IC50 came to 41 nM.

As for `CC1=C(N2CCN(c3ccc(CN4[C@@H](C)CCC(c5ccccc5)S4(=O)=O)c(F)c3)CC2)CCC1=O` (stereo partly drawn) [Example 189, 3-{4-[3-Fluoro-4-((3S)-3-methyl-1,1-dioxo-6-phenyl-[1,2]thiazinan-2-ylmethyl)-phenyl]-piperazin-1-yl}-2-methyl-cyclopent-2-enone], the IC50 was determined as 59 nM.

With `CC(=O)N1CCN(c2ccc(CN3[C@@H](C)CC(c4ccccc4)S3(=O)=O)c(F)c2)CC1` (single isomer, unassigned) [Example 63], the IC50 was 570 nM.

With `CC(=O)N1CCN(c2ccc(CN3[C@@H](C)CCC(c4ccccc4)S3(=O)=O)c(F)c2)C[C@H]1C#N` (stereo partly drawn) [Example 385, (S)-1-Acetyl-4-[3-fluoro-4-((3S)-methyl-1,1-dioxo-6-phenyl-[1,2]thiazinan-2-ylmethyl)-phenyl]-piperazine-2-carbonitrile], the IC50 amounted to 240 nM.

For `C[C@H]1CCC(c2ccccc2)S(=O)(=O)N1Cc1ccc(C(=O)NC2(C#N)CCC2)cc1` (stereo partly drawn) [Example 369, N-(1-Cyano-cyclobutyl)-4-((3S)-methyl-1,1-dioxo-6-phenyl-[1,2]thiazinan-2-ylmethyl)-benzamide], the IC50 stood at 3480 nM.

On to `CC(=O)N1CCN(c2ccc(CN3[C@@H](C)CCC(c4ccccc4)S3(=O)=O)cc2C)CC1` (single isomer, unassigned) [Example 129], for which the IC50 stood at 432 nM.

For `C[C@@H]1CCC(c2ccccc2)S(=O)(=O)N1Cc1ccc(OC2CCN(S(C)(=O)=O)CC2)cc1F` (stereo partly drawn) [Example 53, 2-(2-fluoro-4-((1-(methylsulfonyl)piperidin-4-yl)oxy)benzyl)-(3R)-3-methyl-6-phenyl-1,2-thiazinane 1,1-dioxide], the IC50 is 6 nM.

Take `O=S1(=O)C(c2ccccc2)CCCCN1Cc1ccc(N2CCC(n3cnnc3)CC2)cc1` (single isomer, unassigned) [Example 342, 7-Phenyl-2-[4-(4-[1,2,4]triazol-4-yl-piperidin-1-yl)-benzyl]-[1,2]thiazepane 1,1-dioxide]: the IC50 was determined as 75 nM.

As to `C[C@H]1CCC(c2ccccc2)S(=O)(=O)N1Cc1ccc(C(=O)N2CCOC(C(N)=O)C2)cc1` (stereo partly drawn) [Example 298, 4-[4-((3S)-Methyl-1,1-dioxo-6-phenyl-[1,2]thiazinan-2-ylmethyl)-benzoyl]-morpholine-2-carboxylic acid amide], the IC50 was 4720 nM.

Regarding `C[C@H]1CCC(c2ccccc2)S(=O)(=O)N1Cc1ccc(N2CCC(C#N)CC2)cc1F` (single isomer, unassigned) [Example 86], the IC50 turned out to be 15 nM.

Staying with this assay, now noted: read-out: RORc IC50.
With `CC1CN(S(C)(=O)=O)CCC1Nc1ccc(CN2[C@@H](C)CCC(c3ccccc3)S2(=O)=O)c(F)c1` (stereo partly drawn) [Example 451, [3-Fluoro-4-((3S)-methyl-1,1-dioxo-6-phenyl-[1,2]thiazinan-2-ylmethyl)-phenyl]-(1-methanesulfonyl-3-methyl-piperidin-4-yl)-amine], the IC50 is 12 nM.

Consider `C[C@H]1CCC(c2ccccc2)S(=O)(=O)N1Cc1ccc(N2CC(n3cnnc3)C2)cc1F` (stereo partly drawn) [Example 428, 2-[2-Fluoro-4-(3-[1,2,4]triazol-4-yl-azetidin-1-yl)-benzyl]-(3S)-methyl-6-phenyl-[1,2]thiazinane 1,1-dioxide], for which the IC50 is 88 nM.

For `C[C@H]1CCC(c2ccccc2)S(=O)(=O)N1Cc1ccc(NC(=O)CC2CCOCC2)cc1F` (stereo partly drawn) [Example 455, N-[3-Fluoro-4-((3S)-methyl-1,1-dioxo-6-phenyl-[1,2]thiazinan-2-ylmethyl)-phenyl]-2-(tetrahydro-pyran-4-yl)-acetamide], the IC50 stood at 123 nM.

As for `C[C@H]1CCC(c2ccccc2)S(=O)(=O)N1Cc1ccc(N2CCN(c3cnccn3)CC2)cc1F` (stereo partly drawn) [Example 441, 4-[3-Fluoro-4-((3S)-methyl-1,1-dioxo-6-phenyl-[1,2]thiazinan-2-ylmethyl)-phenyl]-3,4,5,6-tetrahydro-2H-[1,2′]bipyrazinyl], the IC50 stood at 171 nM.

As for `C[C@H]1CCC(c2ccccc2)S(=O)(=O)N1Cc1ccc(OCC2CCOCC2)cc1` (stereo partly drawn) [Example 436, (3S)-Methyl-6-phenyl-2-[4-(tetrahydro-pyran-4-ylmethoxy)-benzyl]-[1,2]thiazinane 1,1-dioxide], the IC50 is 86 nM.

`C[C@H]1CCC(c2ccccc2)S(=O)(=O)N1Cc1ccc(OC2CCNC2=O)cc1` (stereo partly drawn) [Example 446, 3-[4-((3S)-Methyl-1,1-dioxo-6-phenyl-[1,2]thiazinan-2-ylmethyl)-phenoxy]-pyrrolidin-2-one]: the IC50 was found to be 1500 nM.
